# Results reported in US20070207946A1, “Dipeptidyl peptidase IV inhibitors and their uses for lowering blood pressure levels” (priority 2001, published 2007).
# Read-outs that look alike come from different tables or passages of the source. Square brackets hold non-standard residues; d marks the D form. Peptide text beside a SMILES is read from it. * marks the point of attachment. pY = N[C@@H](Cc1ccc(OP(=O)(O)O)cc1)C(=O)O; aIle = CC[C@@H](C)[C@H](N)C(=O)O; Aoc(2) = CCCCCC[C@H](N)C(=O)O; Tle = CC(C)(C)[C@H](N)C(=O)O; Orn = NCCC[C@H](N)C(=O)O; Aze = O=C(O)[C@@H]1CCN1; Nva = CCC[C@H](N)C(=O)O; Abu = CC[C@H](N)C(=O)O; Bn = c1ccc(C*)cc1
# Columns and labels:
# [1] = biological target: T1, dipeptidyl peptidase IV from porcine kidney (Sus scrofa, UniProt P22411); assay: Ki determination of DPIV inhibition; assay type: biochemical; conditions: substrate glycylprolyl-4-nitroaniline, HEPES pH7.6, 30° C.
# T1 construct: dipeptidyl peptidase IV from porcine kidney; from tissue; host or cells: porcine kidney
# purified porcine DPIV = purified porcine DPIV (Sus scrofa, UniProt P22411); assay: Determination of IC50 values (DPIV, Gly-Pro-pNA); assay type: biochemical; conditions: Gly-Pro-pNA 0.4 mM, HEPES pH7.6, 30° C.
# Description: 100 μl inhibitor stock solution were mixed with 100 μl buffer (HEPES pH7.6) and 50 μl substrate (Gly-Pro-pNA, final concentration 0.4 mM) and preincubated at 30° C. Reaction was started by addition of 20 μl purified porcine DPIV. Formation of the product pNA was measured at 405 nm over 10 min using the HTS 7000Plus plate reader (Perkin Elmer) and slopes were calculated. The final inhibitor concentrations ranged between 1 mM and 30 nM. For calculation of IC50 GraFit 4.0.13 (Erithacus Software) was used.
# plasma DPIV activity = biological target: T2, plasma DPIV activity (Rattus norvegicus, UniProt P14740); assay: DPIV inhibiting activity after intravasal and oral administration to Wistar rats; assay type: in vivo; conditions: for in vivo DPIV-inhibition at tmax, i.v. / in vivo DPIV-inhibition at tmax, p.o.: dose 100 mg/kg; for inhibition at 100 mg/kg: rat
# T2 construct: from tissue; host or cells: plasma of Wistar rats
# Description: Male Wistar rats (Shoe: Wist(Sho)) with a body weight ranging between 250 and 350 g were purchased from Tierzucht Schönwalde (Schönwalde, Germany).
# Animals were single-caged under conventional conditions with controlled temperature (22±2° C.) on a 12/12 hours light/dark cycle (light on at 06:00 AM). Standard pelleted chow (ssniff® Soest, Germany) and tap water acidified with HCl were allowed ad libitum.
# After ≧one week of adaptation at the housing conditions, catheters were implanted into the carotid artery of Wistar rats under general anaesthesia (i.p. injection of 0.25 ml/kg b.w. Rompun® [2%], BayerVital, Germany and 0.5 ml/kg b.w. Ketamin 10, Atarost GmbH & Co., Twistringen, Germany). The animals were allowed to recover for one week. The catheters were flushed with heparin-saline (100 IU/ml) three times per week. In case of catheter dysfunction, a second catheter was inserted into the contra-lateral carotid artery of the respective rat. After one week of recovery from surgery, this animal was reintegrated into the study. In case of dysfunction of the second catheter, the animal was withdrawn from the study. A new animal was recruited and the experiments were continued in the planned sequence, beginning at least 7 days after catheter implantation.
# After overnight fasting, 100 μl samples of heparinised arterial blood were collected at −30, −5, and 0 min. […] In the case of oral administration, an additional volume of 1 ml saline was injected into the arterial catheter. In the case of infra-arterial administration, the catheter was immediately flushed with 30 μl saline and an additional 1 ml of saline was given orally via the feeding tube.
# All blood samples were collected into ice cooled Eppendorf tubes (Eppendorf-Netheler-Hinz, Hamburg, Germany) filled with 10 μl 1M sodium citrate buffer (pH 3.0) for plasma DPIV activity measurement. Eppendorf tubes were centrifuged immediately (12000 rpm for 2 min, Hettich Zentrifuge EBA 12, Tuttlingen; Germany): The plasma fractions were stored on ice until analysis or were frozen at −20° C. until analysis. All plasma samples were labelled with the following data:
# The assay mixture for determination of plasma DPIV activity consisted of 80 μl reagent and 20 μl plasma sample. […] The DPIV activity was expressed in mU/ml.
# All parameters were analysed in a descriptive manner including mean and SD.
# PepT1 [2] = biological target: T3, PepT1 (Oryctolagus cuniculus, UniProt P36836); assay: Transport characteristics at PepT1-expressing oocytes of X. leavis, two-electrode voltage clamp; assay type: cell-based
# T3 sequence (P36836 1-707): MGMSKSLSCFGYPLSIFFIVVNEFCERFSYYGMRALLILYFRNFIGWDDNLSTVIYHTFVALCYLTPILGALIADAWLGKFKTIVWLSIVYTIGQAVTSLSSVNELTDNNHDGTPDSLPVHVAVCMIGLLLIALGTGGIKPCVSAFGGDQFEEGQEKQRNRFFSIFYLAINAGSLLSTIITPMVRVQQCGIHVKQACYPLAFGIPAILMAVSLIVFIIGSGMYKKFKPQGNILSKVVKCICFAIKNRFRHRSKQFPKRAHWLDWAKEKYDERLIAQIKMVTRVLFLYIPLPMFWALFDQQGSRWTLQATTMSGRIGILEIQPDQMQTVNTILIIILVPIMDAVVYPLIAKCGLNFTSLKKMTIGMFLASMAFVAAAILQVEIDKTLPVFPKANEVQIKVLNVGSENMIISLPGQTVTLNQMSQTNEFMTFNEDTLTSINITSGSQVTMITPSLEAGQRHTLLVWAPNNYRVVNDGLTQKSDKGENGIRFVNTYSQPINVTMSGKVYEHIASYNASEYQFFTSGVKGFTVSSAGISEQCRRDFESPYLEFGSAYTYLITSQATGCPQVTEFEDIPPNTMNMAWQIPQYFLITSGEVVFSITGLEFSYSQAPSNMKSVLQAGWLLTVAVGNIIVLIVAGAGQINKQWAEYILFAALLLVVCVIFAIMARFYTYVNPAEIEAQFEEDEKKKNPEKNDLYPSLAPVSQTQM
# Source text: (§1) Side chain-modified glutamyl thiazolidines having a structure H-Glu(X)-Thia were synthesised, with polyethylene glycol or glycine oligomers of various chain lengths being used as X (see Method A of example for description of synthesis). The binding characteristics of those derivatives and their transportability by the peptide transporter PepT1 were investigated.
# PepT1 [3] = biological target: T3, PepT1; assay: Inhibition of binding of 3H-D-Phe-Ala to PepT1-expressing P. pastoris cells; conditions: read-out: EC50: concentration inhibiting the binding of 3H-D-Phe-Ala to PepT1-expressing P. pastoris cells by 50%
# Source text: as §1
# F344 rats = assay: Chronic intragastric infusion via osmotic minipumps over two weeks - blood pressure; assay type: in vivo, rat
# Description: Reduced expression of the ectopeptidase DPIV and lack of DPIV-like activity in mutant F344 rats lacking DPIV enzymic activity and expression results in a lowered blood pressure. Mutant F344 substrains lacking DPIV enzymic activity and wild-type-like F344 were tested.
# [4] = intra-vasal (intra-arterial) route
# T2 sequence (P14740 38-767 limits assumed): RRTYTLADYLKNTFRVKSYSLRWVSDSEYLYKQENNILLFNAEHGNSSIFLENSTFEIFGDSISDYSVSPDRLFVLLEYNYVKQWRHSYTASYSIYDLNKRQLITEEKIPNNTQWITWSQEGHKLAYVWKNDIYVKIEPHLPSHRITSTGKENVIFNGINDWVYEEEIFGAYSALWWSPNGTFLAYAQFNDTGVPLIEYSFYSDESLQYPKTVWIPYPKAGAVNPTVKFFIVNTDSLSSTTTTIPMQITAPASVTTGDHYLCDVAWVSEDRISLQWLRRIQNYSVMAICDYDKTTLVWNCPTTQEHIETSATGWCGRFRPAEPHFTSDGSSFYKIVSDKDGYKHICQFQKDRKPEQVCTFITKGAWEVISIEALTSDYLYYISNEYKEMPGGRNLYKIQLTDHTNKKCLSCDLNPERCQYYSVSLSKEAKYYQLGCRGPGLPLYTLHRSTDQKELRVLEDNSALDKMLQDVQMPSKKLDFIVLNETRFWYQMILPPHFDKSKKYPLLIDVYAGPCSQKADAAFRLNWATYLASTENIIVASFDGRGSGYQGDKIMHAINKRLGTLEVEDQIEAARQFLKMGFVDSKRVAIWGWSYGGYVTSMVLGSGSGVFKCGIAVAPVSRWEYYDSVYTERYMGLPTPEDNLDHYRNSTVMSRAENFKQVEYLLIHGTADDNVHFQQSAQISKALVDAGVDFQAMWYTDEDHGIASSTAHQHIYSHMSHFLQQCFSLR
# T1 sequence (P22411 whole entry): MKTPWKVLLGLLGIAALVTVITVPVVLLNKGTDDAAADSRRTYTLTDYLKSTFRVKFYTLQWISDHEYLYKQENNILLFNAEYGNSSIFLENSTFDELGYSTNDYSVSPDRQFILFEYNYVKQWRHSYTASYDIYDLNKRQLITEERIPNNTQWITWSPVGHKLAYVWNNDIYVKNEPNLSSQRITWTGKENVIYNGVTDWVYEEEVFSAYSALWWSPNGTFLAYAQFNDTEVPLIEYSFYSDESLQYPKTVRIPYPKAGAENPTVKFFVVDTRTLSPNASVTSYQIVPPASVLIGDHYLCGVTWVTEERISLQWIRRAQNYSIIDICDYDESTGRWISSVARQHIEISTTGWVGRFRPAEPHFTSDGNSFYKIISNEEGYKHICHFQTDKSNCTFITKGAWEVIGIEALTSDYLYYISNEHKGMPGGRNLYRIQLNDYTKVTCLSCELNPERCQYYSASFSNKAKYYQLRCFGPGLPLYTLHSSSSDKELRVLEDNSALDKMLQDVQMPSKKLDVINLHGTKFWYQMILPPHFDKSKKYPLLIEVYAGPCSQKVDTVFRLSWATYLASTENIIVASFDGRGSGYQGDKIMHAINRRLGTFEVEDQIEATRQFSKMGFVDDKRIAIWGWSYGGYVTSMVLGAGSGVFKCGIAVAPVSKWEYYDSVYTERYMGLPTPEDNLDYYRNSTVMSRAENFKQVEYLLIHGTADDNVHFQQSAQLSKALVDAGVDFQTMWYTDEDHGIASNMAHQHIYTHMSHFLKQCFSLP
# Chain of purified porcine DPIV (P22411 whole entry): as above
Compound,Ki [1],IC50 (purified porcine DPIV),also measured
"CCCCCC[C@H](N)C(=O)N1CCC[C@H]1C(=O)N[C@H](C(=O)O)[C@@H](C)CC [AOA-Pro-Ile, 2-Amino octanoic acid-Pro-Ile] (H-[Aoc(2)]-Pro-Ile-OH)",12.6 µM,,
CC[C@H](N)C(=O)N1CCC[C@H]1C(=O)N[C@H](C(=O)O)[C@@H](C)CC [Abu-Pro-Ile] (H-[Abu]-Pro-Ile-OH; N-terminus and C-terminus assumed),,34.3 µM,
"Br.CC(=O)OCC(=O)[C@@H]1CCCN1C(=O)[C@@H](NC(=O)[C@H](C)N)C(C)C [Ala-Val-Pro-acyloxy methyl ketone, H-Ala-Val-Pro-CH2O—C(O)CH3*HBr]",,,"in vivo DPIV-inhibition at tmax, i.v. (plasma DPIV activity; [4]): 89%; in vivo DPIV-inhibition at tmax, p.o. (plasma DPIV activity; oral): 86%"
"Br.CC(C)[C@H](NC(=O)[C@H](C)N)C(=O)N1CCC[C@H]1C(=O)COC(=O)c1ccccc1 [Ala-Val-Pro-benzoyl-methyl ketone, H-Ala-Val-Pro-CH2O—C(O)Ph*HBr]",,,"in vivo DPIV-inhibition at tmax, i.v. (plasma DPIV activity; [4]): 97%; in vivo DPIV-inhibition at tmax, p.o. (plasma DPIV activity; oral): 76%"
CC[C@H](C)[C@H](NC(=O)[C@@H]1CCCN1C(=O)[C@@H]1CCN1)C(=O)O [Aze-Pro-Ile] (H-[Aze]-Pro-Ile-OH; N-terminus and C-terminus assumed),,72.8 µM,
NC(CC(=O)O)C(=O)N1CCCC1 (stereo not drawn) [H-Asp-pyrrolidine],14 µM,,
N[C@@H](CCC(=O)NO)C(=O)N1CCSC1 [H-Glu(NHOH)-thiazolidine],1.7 µM,,"Imax, inward currents generated by the transport (PepT1 [2]): 42 ± 11 nA; EC50 (PepT1 [3]): 3180 µM"
N[C@@H](CCC(=O)O)C(=O)N1CCSC1 [H-Glu-thiazolidine],,,"Imax, inward currents generated by the transport (PepT1 [2]): 35 ± 13 nA"
NC(Cc1c[nH]cn1)C(=O)N1CCCC1 (stereo not drawn) [H-His-pyrrolidine],35 µM,,
CCC(C)C(N)C(=O)N1CC1 (stereo not drawn) [H-Ile-azididine],3.1 µM,,
CC[C@@H](C)[C@H](NC(=O)[C@@H]1CCCN1C(=O)[C@@H](N)[C@@H](C)CC)C(=O)O [Ile-Pro-allo-Ile],5.22 µM,,
CC[C@H](C)[C@H](N)C(=O)N1CCC[C@H]1C(=O)N[C@H](C(=O)O)C(C)(C)C [Ile-Pro-t-butyl-Gly] (H-Ile-Pro-[Tle]-OH; N-terminus and C-terminus assumed),18.9 µM,82.3 µM,
CCC(C)C(N)C(=O)C1CCCCC1 (stereo not drawn) [Ile-cyclohexyl ketone],56.8 µM,293 µM,
"CCC(C)C(N)C(=O)C1CCCC1 (stereo not drawn) [Ile-cyclopentyl ketone, 1-cyclopentyl-3-methyl-1-oxo-2-pentanaminium chloride]",,,"inhibition at 100 mg/kg (plasma DPIV activity; iv, intra-vasal (intra-arterial) route, read-out: in vivo DPIV-inhibition at tmax, i.v.): 34%; inhibition at 100 mg/kg (plasma DPIV activity; oral, read-out: in vivo DPIV-inhibition at tmax, p.o.): 15%"
CCC[C@H](N)C(=O)N1CCC[C@H]1C(=O)N[C@H](C(=O)O)[C@@H](C)CC [Nva-Pro-Ile] (H-[Nva]-Pro-Ile-OH; N-terminus and C-terminus assumed),6.17 µM,24.9 µM,
CC[C@H](C)[C@H](NC(=O)[C@@H]1CCCN1C(=O)[C@@H](N)CCCN)C(=O)O [Orn-Pro-Ile] (H-[Orn]-Pro-Ile-OH; N-terminus and C-terminus assumed),,216 µM,

Compound,Ki [1],IC50 (purified porcine DPIV),also measured
CC[C@H](C)[C@H](NC(=O)[C@@H]1CCCN1C(=O)[C@@H](N)COCc1ccccc1)C(=O)O [Ser(Bzl)-Pro-Ile] (H-Ser(Bn)-Pro-Ile-OH; N-terminus and C-terminus assumed),21.6 µM,67.8 µM,
CC[C@H](C)[C@H](NC(=O)[C@@H]1CCCN1C(=O)[C@@H](N)Cc1ccc(OP(=O)(O)O)cc1)C(=O)O [Tyr(P)-Pro-Ile] (H-[pY]-Pro-Ile-OH; N-terminus and C-terminus assumed),,,"in vivo DPIV-inhibition at tmax, p.o. (plasma DPIV activity; oral): no inhibition"
CC[C@@H](C)[C@H](NC(=O)[C@@H]1CCCN1C(=O)[C@@H](N)Cc1ccc(O)cc1)C(=O)O [Tyr-Pro-allo-Ile] (H-Tyr-Pro-[aIle]-OH; N-terminus and C-terminus assumed),18.2 µM,64.1 µM,
CC[C@@H](C)[C@H](NC(=O)[C@@H]1CCCN1C(=O)[C@@H](N)C(C)C)C(=O)O [Val-Pro-allo-Ile],9.54 µM,,
CC(=O)C1CCCN1C(=O)C(N)C(C)C (stereo not drawn) [Val-Pro-methyl ketone],0.0476 µM,0.579 µM,
CC(C)C(N)C(=O)C1CCCC1 (stereo not drawn) [Val-cyclopentyl ketone],13.1 µM,49 µM,
CC[C@H](C)[C@H](N)C(=O)N1CCCC1C#N.O=C(O)C(F)(F)F (stereo partly drawn) [isoleucyl cyano pyrrolidine TFA],,,blood pressure (F344 rats): dose-dependently reduced
CC(C)[C@@H](NC(=O)[C@@H]1CCCN1C(=O)[C@@H](N)C(C)(C)C)C(=O)O [t-butyl-Gly-Pro-D-Val] (H-[Tle]-Pro-[dV]-OH; N-terminus and C-terminus assumed),,112 µM,
CC(C)[C@H](NC(=O)[C@@H]1CCCN1C(=O)[C@@H](N)C(C)(C)C)C(=O)O [t-butyl-Gly-Pro-Val] (H-[Tle]-Pro-Val-OH; N-terminus and C-terminus assumed),3.08 µM,,
CC(C)(C)C(N)C(=O)C1CCCCC1 (stereo not drawn) [t-butyl-Gly-cyclohexyl ketone],273 µM,273 µM,
H-Glu(PEG)-Thia,3.11 µM,,EC50 (PepT1 [3]): > 10000 µM
Val-Pro-acyloxy methyl ketone,0.00105 µM,0.0102 µM,
Val-Pro-benzothiazol methyl ketone,0.0373 µM,0.138 µM,
Val-Pro-benzoyl methyl ketone,0.000536 µM,0.0179 µM,
Val-cyclohexyl ketone,,1000 µM,
